Results from PMC5736782, “The Differential Absorption of a Series of P-Glycoprotein Substrates in Isolated Perfused Lungs from Mdr1a/1b Genetic Knockout Mice can be Attributed to Distinct Physico-Chemical Properties: an Insight into Predicting Transporter-Mediated, Pulmonary Specific Disposition” (Pharmaceutical Research, 2017).
Read-outs that look alike come from different tables or passages of the source.

Columns and labels:
[1] = Multi-lamellar liposome vesicle (MLV) partitioning; type: physicochemical; conditions: (C0−CS)/C0, 1 μg/mL, 4 h, 37°C, PBS pH 7.4
Procedure: MLVs were formed as previously described ([20]). Briefly, solutions of 8 mg phosphatidylcholine and 2 mg phosphatidylglycerol in 10 mL chloroform were completely dried to a lipid film (rotation under vacuum).
These preparations were then incubated at 37°C for 4 h under shaking conditions to allow equilibration of compound between the lipid and aqueous fractions. The MLVs were then pelleted and 100 μL of supernatant removed for analysis by radiometric or LC-MS/MS methods as described above. Partitioning into the MLVs was determined according to Eq. 3:3 MLVpartitioning=C0−CS/C0
where C0 is the initial compound concentration (1 μg/mL) and CS is the compound concentration present in the aqueous supernatant at the end of 4 h incubation.

[2] = Immobilised artificial membrane (IAM) chromatography; type: physicochemical; conditions: extrapolated to 100% water; mean of four experiments
Procedure: IAM chromatography provided an experimental measure of substrate membrane affinity and phospholipid interaction. The IAM column (Regis Technologies Inc., Hichrom, Reading, UK; IAM.PC.DD2 10 cm x 4.6 mm ID column) was run under isocratic eluting conditions with the retention of all compounds determined under three mobile phase conditions: 10%, 20% and 30% acetonitrile in water, and from which the theoretical retention time in 100% water was calculated by linear regression. LogK^IAM values were calculated according to Eq. 2:2 LogK^IAM=LogTr−T0/T0
where Tr and T0 are respectively the retention times of the substrate in 100% water and of the unretained compound, i.e. eluting within the solvent front of 75 s in all experiments.

mouse Mdr1a = mouse Mdr1a (Mus musculus, UniProt P21447); assay: Gentest ABC transporter membrane ATPase assay; conditions: 0–300 μM, 30 min, 37°C
Source text: (§1) The Gentest ATPase assay (Corning, Germany) was used to investigate the binding kinetics of the panel of P-gp substrates against membranes constituted to display human MDR1, mouse Mdr1a, mouse Mdr1b and mouse Bcrp. The assays measure the accumulation of inorganic phosphate (absorbance at 800 nm) produced in the breakdown of ATP to ADP. […] The assays were used in accordance with the manufacturer’s protocol to calculate (GraphPad Prism) the Michaelis-Menten parameters Km and VMAX. For the assay test compounds were serially diluted to produce an assay concentration range of 0–300 μM with the kinetics of ATP turnover examined over 30 min at 37°C.

mouse Bcrp = target: T1, mouse Bcrp (Mus musculus, UniProt Q7TMS5); assay: Gentest ABC transporter membrane ATPase assay; type: biochemical; conditions: ATPase; 0 indicates no enzyme turnover
T1 construct: purchased Corning (Gentest), Germany
T1 sequence (Q7TMS5 1-657): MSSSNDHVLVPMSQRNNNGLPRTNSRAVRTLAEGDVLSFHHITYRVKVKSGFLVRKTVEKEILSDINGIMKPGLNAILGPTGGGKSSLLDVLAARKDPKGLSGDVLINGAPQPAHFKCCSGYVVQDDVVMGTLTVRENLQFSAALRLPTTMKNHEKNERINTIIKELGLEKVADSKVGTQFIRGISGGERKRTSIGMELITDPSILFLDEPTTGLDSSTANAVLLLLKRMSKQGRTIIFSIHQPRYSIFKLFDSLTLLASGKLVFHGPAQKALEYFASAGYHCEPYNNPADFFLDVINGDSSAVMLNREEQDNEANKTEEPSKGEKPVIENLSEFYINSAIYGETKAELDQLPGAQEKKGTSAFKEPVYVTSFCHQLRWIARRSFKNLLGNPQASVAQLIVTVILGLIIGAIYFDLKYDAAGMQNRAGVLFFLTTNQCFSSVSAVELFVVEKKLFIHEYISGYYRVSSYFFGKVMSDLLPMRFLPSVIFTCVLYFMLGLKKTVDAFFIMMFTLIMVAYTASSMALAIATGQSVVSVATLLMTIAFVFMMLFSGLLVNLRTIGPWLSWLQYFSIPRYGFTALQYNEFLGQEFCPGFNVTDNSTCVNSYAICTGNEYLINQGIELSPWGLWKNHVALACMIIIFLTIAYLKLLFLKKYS
Source text: as §1

[3] = system: P-gp (Mdr1a/1b) in mouse intestinal segments; assay: Ussing chamber intestinal permeability, ileal segments Mdr1a/1b (+/+) vs (−/−); conditions: for Mdr1a/1b (−/−) Permeability coefficient: P-gp knockout intestinal segments; for Mdr1a/1b (−/−) Permeability coefficient / Mdr1a/1b (+/+) Permeability coefficient: mucosal to serosal, 50 μM, 180 min; for Mdr1a/1b (+/+) Permeability coefficient: wild-type intestinal segments
Procedure: (§2) The bathing fluid for both mucosal and serosal surfaces (3 mL volume in each chamber) comprised oxygenated Krebs-Henseleit buffer maintained at 37°C (heating block) under stirred conditions (gas flow manifold). […] Any intestinal segments presenting an initial TEER of lower than 80 Ω.cm^2 were discarded prior to the experiment, likewise any segments whose TEER decreased by more than 10% over the course of the experiment were excluded.
(§3) Thereafter permeability coefficients were determined according to Eq. 4:4 ρ=dM/dt/A^∗C0

human MDR1 (P-gp) = human MDR1 (P-gp) (Homo sapiens, UniProt P08183); assay: Gentest ABC transporter membrane ATPase assay; conditions: human
Source text: as §1

human MDR1 = human MDR1 (Homo sapiens, UniProt P08183); assay: Gentest ABC transporter membrane ATPase assay; conditions: ATPase, 0–300 μM, 30 min, 37°C
Source text: as §1

mouse Mdr1b = mouse Mdr1b (Mus musculus, UniProt P06795); assay: Gentest ABC transporter membrane ATPase assay; conditions: 0–300 μM, 30 min, 37°C
[4] = system: P-glycoprotein (Mdr1a/Mdr1b) in isolated perfused mouse lung; assay: Isolated perfused mouse lung (IPML) airway-to-perfusate absorption, Mdr1a/1b (+/+) vs (−/−)
Procedure: The atria and the lower half of the heart were cut to allow the free flow of perfusate. The lungs were removed and suspended vertically in a custom water-jacketed glass thorax (Radleys, Essex, UK) maintained at 37°C.
Following dosing of compound into the IPML airways serial samples (250 μL) were collected for bioanalysis from the 10 mL recirculating perfusate reservoir. Each sample collected from the reservoir was replaced with an equal volume of fresh warmed, oxygenated perfusate. Upon termination of the experiment the dose solutions, apparatus washings and perfusate samples were collected for mass balance calculations enabling determination of the actual total dose delivered to the lungs.
Radioactive compounds were directly analysed by liquid scintillation counting. Volumes of 50 μL perfusate samples were mixed with 3 mL of Scintisafe 3 Liquid Scintillation Fluid (Fisher, UK) and transferred to vials for scintillation counting using a TriCarb 2900TR (Packard Bioscience, USA).
After accounting for the mass of compound removed at each sample point, plots of the cumulative ‘%deposited dose absorbed’ versus ‘time’ were generated and subject to nonlinear regression analysis according to a first-order absorption one-compartment accumulating model (Eq. 1) to generate estimates for the extent (F) and rate (Ka) of absorption from the IPML airways to the recirculating perfusate.
The data was also subject to standard non-compartmental analysis, specifically Area Under Curve (AUC0–30 min) of ‘%deposited dose absorbed’ versus ‘time’ (units: %Dose.min) and reflecting for the exclusively accumulating perfusate ‘compartment’ the exposure arising from the IPML absorption process alone.

[5] = system: P-gp (Mdr1a/1b) in mouse intestinal segments
Procedure: as §2, §3

P-gp = system: P-gp; parameters: method as in PMID 23670704; conditions: IPRL and IPML models; cited from earlier work

Chain of mouse Mdr1b (P06795 whole entry, the tested form may be a part): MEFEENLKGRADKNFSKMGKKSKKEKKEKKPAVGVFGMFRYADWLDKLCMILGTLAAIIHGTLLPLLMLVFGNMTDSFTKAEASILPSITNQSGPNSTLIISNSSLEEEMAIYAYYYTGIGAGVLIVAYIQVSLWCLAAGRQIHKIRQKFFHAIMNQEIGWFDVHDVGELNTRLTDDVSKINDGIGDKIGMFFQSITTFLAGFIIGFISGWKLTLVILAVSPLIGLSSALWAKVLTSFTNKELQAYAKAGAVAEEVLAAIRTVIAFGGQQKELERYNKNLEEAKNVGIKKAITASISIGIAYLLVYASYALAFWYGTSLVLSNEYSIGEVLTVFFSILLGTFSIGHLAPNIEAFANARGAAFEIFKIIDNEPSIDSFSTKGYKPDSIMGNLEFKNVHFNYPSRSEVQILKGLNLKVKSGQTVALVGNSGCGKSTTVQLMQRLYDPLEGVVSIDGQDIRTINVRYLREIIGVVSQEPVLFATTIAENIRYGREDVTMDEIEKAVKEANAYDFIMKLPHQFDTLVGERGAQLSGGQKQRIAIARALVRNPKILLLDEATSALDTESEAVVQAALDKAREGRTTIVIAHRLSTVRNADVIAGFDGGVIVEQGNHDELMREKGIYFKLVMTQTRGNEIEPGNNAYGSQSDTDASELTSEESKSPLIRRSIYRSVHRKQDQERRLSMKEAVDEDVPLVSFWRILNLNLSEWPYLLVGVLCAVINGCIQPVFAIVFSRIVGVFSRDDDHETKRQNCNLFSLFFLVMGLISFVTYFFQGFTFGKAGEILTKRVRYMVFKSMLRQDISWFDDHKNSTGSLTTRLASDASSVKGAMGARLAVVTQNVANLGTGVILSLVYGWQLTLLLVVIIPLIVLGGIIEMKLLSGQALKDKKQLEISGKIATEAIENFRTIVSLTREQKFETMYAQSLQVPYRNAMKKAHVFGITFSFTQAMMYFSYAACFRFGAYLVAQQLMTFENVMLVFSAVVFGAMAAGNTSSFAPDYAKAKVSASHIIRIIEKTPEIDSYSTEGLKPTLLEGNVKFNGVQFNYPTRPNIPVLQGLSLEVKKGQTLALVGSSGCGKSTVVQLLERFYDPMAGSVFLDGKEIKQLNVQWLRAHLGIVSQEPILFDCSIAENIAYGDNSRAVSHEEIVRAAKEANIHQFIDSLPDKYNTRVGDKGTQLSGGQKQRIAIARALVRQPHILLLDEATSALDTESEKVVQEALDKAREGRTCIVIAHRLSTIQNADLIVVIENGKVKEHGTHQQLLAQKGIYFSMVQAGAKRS
Chain of mouse Mdr1a (P21447 whole entry): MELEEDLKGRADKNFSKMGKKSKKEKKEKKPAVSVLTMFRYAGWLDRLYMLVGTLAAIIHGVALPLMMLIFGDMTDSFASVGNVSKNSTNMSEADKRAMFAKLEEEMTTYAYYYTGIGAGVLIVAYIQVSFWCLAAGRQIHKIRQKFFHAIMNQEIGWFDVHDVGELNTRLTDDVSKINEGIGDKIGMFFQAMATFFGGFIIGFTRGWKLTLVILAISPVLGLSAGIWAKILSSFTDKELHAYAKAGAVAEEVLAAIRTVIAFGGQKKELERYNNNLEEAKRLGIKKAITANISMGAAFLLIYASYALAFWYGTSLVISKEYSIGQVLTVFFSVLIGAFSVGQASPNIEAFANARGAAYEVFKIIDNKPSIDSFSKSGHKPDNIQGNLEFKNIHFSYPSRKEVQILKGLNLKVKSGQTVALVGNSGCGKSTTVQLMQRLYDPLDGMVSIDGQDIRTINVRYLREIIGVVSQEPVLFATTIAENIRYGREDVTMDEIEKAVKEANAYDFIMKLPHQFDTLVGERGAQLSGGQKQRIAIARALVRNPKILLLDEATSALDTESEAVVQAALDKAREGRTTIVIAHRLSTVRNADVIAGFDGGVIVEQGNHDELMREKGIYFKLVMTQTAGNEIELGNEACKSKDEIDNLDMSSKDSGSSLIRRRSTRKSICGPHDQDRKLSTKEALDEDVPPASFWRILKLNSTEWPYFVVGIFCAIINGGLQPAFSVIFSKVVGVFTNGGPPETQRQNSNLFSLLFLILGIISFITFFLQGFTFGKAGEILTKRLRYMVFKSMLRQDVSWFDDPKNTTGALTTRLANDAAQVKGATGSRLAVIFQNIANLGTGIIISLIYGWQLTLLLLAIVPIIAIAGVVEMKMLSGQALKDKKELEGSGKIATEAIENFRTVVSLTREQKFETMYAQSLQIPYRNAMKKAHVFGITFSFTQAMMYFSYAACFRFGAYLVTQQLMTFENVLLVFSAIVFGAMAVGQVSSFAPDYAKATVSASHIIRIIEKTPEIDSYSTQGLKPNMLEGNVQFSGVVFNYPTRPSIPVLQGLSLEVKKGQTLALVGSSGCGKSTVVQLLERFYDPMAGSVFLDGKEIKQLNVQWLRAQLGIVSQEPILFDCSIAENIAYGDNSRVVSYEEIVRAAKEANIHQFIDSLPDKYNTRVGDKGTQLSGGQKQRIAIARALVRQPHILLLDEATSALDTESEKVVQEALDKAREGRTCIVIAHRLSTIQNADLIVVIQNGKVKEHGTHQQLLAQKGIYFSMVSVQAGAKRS
Chain of human MDR1 (P08183 whole entry): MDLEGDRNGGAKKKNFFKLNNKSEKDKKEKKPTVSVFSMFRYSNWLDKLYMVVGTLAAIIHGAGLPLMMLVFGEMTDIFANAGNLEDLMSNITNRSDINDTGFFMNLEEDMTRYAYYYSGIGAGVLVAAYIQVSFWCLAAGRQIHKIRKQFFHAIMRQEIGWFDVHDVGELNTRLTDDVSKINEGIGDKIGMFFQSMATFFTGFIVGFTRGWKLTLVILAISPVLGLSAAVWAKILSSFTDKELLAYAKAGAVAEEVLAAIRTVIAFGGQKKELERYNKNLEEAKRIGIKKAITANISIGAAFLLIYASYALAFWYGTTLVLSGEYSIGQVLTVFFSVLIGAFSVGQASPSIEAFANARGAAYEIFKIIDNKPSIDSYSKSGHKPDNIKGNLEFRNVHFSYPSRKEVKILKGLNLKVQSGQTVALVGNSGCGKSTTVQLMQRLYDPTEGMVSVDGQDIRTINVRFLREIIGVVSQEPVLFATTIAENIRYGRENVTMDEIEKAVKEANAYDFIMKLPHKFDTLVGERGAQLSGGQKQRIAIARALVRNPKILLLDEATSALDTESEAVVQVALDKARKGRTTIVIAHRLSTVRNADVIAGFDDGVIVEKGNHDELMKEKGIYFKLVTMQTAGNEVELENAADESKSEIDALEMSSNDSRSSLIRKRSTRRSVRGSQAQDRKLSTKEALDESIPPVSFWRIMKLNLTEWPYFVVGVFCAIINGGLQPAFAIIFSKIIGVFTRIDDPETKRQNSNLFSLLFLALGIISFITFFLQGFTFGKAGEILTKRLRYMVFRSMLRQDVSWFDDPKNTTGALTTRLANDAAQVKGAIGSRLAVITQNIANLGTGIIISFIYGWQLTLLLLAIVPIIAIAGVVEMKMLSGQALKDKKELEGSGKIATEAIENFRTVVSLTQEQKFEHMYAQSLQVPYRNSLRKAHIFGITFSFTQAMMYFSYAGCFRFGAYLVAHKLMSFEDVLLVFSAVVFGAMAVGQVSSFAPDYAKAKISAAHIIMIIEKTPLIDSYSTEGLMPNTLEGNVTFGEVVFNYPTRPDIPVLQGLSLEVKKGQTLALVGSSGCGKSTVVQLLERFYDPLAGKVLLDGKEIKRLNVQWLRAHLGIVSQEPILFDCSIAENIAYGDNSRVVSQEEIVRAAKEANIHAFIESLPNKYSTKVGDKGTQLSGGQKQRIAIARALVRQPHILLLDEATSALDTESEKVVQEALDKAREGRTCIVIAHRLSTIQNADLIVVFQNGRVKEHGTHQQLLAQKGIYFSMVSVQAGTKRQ
Chain of human MDR1 (P-gp) (P08183 whole entry): as above

Structure (SMILES)	MLV Partitioning [1]	LogK^IAM [2]	Km (mouse Mdr1a) [µM]	Vmax (mouse Mdr1a) [µM/min]	Vmax (mouse Bcrp) [µM/min]	Mdr1a/1b (−/−) Permeability coefficient [3]	Mdr1a/1b (+/+) Permeability coefficient [3]	Vmax (human MDR1) [µM/min]	Km (mouse Mdr1b) [µM]	Vmax (mouse Mdr1b) [µM/min]	Mdr1a/1b (+/+) ‘F’ estimate by model fit [95% CI) ([4]; male, mouse, 50 μM)	Mdr1a/1b (-/-) ‘F’ estimate by model fit [95% CI) ([4]; male, mouse, 50 μM)	further results
COc1cc2c(c(OC)c1OC)-c1ccc(OC)c(=O)cc1[C@@H](NC(C)=O)CC2 [Colchicine, colchicine]	0.86	1.30	9.1	22.7	0	14.95 ± 3.18 cm/s (x10^−6)	6.93 ± 3.15 cm/s (x10^−6)	16.6	7.7	28.4			Ratio Permeability (−/−): (+/+) ([3]; intestinal Papp KO:WT): 2.16; Km at 30 min (human MDR1 (P-gp)): 15.4 µM; Ratio AUCs (-/-) : (+/+) ([4]; IPML KO:WT): 1.43; Group (impact of Mdr1a/1b knockout on IPML absorption) ([4]; categorisation from IPML outcomes): GROUP B; Mdr1a/1b (-/-) AUC(0-30) ([4]; knockout IPML, % deposited dose absorbed vs time in perfusate): 571 %.min; Mdr1a/1b (-/-) % Deposited Dose absorbed ([4]; knockout IPML, within 30 minutes): 25.4%; Mdr1a/1b (+/+) ‘F’ estimate by model fit [95% CI) ([4]; male, mouse): 16.6 [14.7 to 18.4]; Mdr1a/1b (-/-) ‘F’ estimate by model fit [95% CI) ([4]; male, mouse): 23.3 [20.9 to 25.7]; Mdr1a/1b (+/+) AUC(0-30) ([4]; wild-type IPML, % deposited dose absorbed vs time in perfusate): 398 %.min; Mdr1a/1b (+/+) % Deposited Dose absorbed ([4]; wild-type IPML, within 30 minutes): 17.7%
CC(C)(C)NCC(O)c1ccc(O)c(CO)c1 (centres unmarked) [Salbutamol, salbutamol]	0.88	1.47		52.3	0		10.6 ± 2.30 cm/s (x10^−6)	45.6		49.1	24.9 [21.8 to 28.1]	30.2 [28.2 to 32.2]	Mdr1a/1b (−/−) Permeability coefficient [5]: 14.90 ± 2.16 cm/s (x10^−6); Group (impact of Mdr1a/1b knockout on IPML absorption) [4]: GROUP B
CC(C)(C)NC(=O)[C@@H]1C[C@@H]2CCCC[C@@H]2CN1C[C@@H](O)[C@H](Cc1ccccc1)NC(=O)[C@H](CC(N)=O)NC(=O)c1ccc2ccccc2n1 [Saquinavir, saquinavir]	0.45	1.24	31.7	39.5	0	15.73 ± 3.52 cm/s (x10^−6)	1.56 ± 0.69 cm/s (x10^−6)	41.3	32	47.1	25.5 [11.4 to 39.6]	29.1 [19.5 to 38.6]	Km at 30 min (human MDR1 (P-gp); membranes displaying human MDR1 (Gentest ATPase assay)): 24.9 µM; effect of P-gp inhibition (GF120918) upon pulmonary absorption (P-gp): unaffected; Mdr1a/1b (+/+) % Deposited Dose absorbed ([4]; male, mouse, 30 min, 50 μM): 20.0%; Mdr1a/1b (-/-) % Deposited Dose absorbed ([4]; male, mouse, 30 min, 50 μM): 20.0%
